Refractive index and viscosity data for one compound are collected here from the NIST ThermoML archive (doi:10.1021/je050498q).

Numbers after ± are expanded uncertainties.

Series [1] can be described thus: refractive index (Na D-line) (dimensionless); wn = mass fraction of the nth substance listed. The settings on record: 101 kPa, Liquid, w2 = 0.
Series [2] in a line: wn = mass fraction of the nth substance listed. The note with it: 101 kPa, Liquid, w2 = 0.

The term refractive index denotes the speed of light in vacuum divided by its phase velocity in the sample. One may read the viscosity as the resistance of a fluid to flow. On to `O` [water] + O=C([O-])[C@H](O)[C@@H](O)C(=O)[O-].[Na+].[Na+], for which the results for the refractive index in series [1] (298.15 K), in series [1] (308.15 K) and in series [1] (318.15 K) were 1.3325 ± 0.0007, 1.3313 ± 0.0007 and 1.33 ± 0.0007, respectively. Moreover, the viscosity in series [2] (298.15 K) was 0.89 ± 0.023 mPa·s; in series [2] (308.15 K), 0.729 ± 0.019 mPa·s; in series [2] (318.15 K), 0.6 ± 0.017 mPa·s.
